Results taken from patent publication US12343326B2, “Psychoactive medicines and their use for treating psychiatric and neurological conditions and disorders” (Transcend Therapeutics, Inc., priority 2021, dated 2025).

Tests used:
mice = assay: Mouse fear extinction paradigm (PTSD model); format: in vivo; conditions: methylone 30 mg/kg IP; day 3
From the text: Effective PTSD treatments facilitate the disassociation between a traumatic memory and the patient's fear response, making cues for the traumatic memory evoke less of a fear response. This is modeled in the mouse fear extinction paradigm (see FIG. 9A) which takes place over 3 days. On day 1 (fear conditioning), mice are trained to acquire a “traumatic memory,” namely associating the conditioned stimulus (CS, tone) to the unconditioned stimulus (US, foot shock). On day 2 (extinction training), they are trained to forget the traumatic memory association by presenting the CS 6 times (with no US) in a novel environment. On day 3 (extinction recall), the mice are “asked” if that tone (CS) still elicits a fearful response, as measured by the time spent freezing when the tone is presented. Less time freezing means better extinction recall. Drugs that improve extinction recall reduce freezing time on day 3, and, therefore, show potential as a PTSD treatment.

rats = assay: Open field test (OFT); format: in vivo, rat; conditions: for time spent in the center of the open field vs. vehicle: single dose 5 or 15 mg/kg IP (text), 5-30 mg/kg (FIG. 11A), 30 minutes before testing
Method: This behavioral assay, also widely used as an anxiety paradigm, capitalizes on a rodent's innate fear of brightly lit open spaces, which are assumed to induce fear or anxiety. Rodents spend more time hugging the walls of the open field during the test, and these effects correlate to underlying brain regions and mechanisms.
Method: Consecutive beam breaks and/or video-tracking of time spent in the center versus periphery of the open field are measured. Also measured are parameters such as distance traveled and ambulatory activity (horizontal and vertical) for the duration of the test session.
The open field test (OFT) capitalizes on a rodent's innate fear of open spaces to assess anxiety-like behavior. More time spent in the center of an open field reflects an anxiolytic (anti-anxiety) effect.
Locomotor activity was also measured in the OFT.
To investigate whether MBDB has an anti-anxiety (anxiolytic) effect, rats were dosed with MBDB (0.5-30 mg/kg, IP) or vehicle (saline) and 30-minutes later were tested in the open field for 30 minutes. This anxiety test capitalizes on a rodents' innate fear of wide-open spaces and propensity to hug the walls when placed into the open field. Therefore, a drug that increases the time spent in the center of the open field has anxiolytic activity and predicts utility for treating anxiety in humans.

168 GPCRs [1] = assay: β-arrestin based GPCR screen (PathHunter / GPCRmax), agonist mode; format: cell-based
Method: For agonist determination, cells were incubated with sample to induce response. […] Vehicle concentration was 1%.

5HT2A receptor = biological target: T1, 5HT2A receptor (Homo sapiens, UniProt P28223); assay: GPCRmax screen, antagonist mode; format: cell-based
T1 construct: beta-galactosidase enzyme fragment (PathHunter complementation tag); host or cells: PathHunter cell lines
T1 sequence (P28223 whole entry, the tested form may be a part): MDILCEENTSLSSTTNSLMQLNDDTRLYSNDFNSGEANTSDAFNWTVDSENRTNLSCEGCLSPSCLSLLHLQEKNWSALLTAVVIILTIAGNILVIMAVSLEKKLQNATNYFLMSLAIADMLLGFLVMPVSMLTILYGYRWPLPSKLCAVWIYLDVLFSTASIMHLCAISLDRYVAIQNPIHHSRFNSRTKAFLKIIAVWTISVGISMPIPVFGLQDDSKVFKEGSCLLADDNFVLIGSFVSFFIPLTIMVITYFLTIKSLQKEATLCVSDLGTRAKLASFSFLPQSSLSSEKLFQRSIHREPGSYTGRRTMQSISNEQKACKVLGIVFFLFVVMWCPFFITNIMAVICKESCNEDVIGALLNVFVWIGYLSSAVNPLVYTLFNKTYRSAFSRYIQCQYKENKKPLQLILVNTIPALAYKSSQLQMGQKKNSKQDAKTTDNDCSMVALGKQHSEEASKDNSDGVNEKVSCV

[2] = Excipient compatibility study (appearance, assay, related substances); format: physicochemical; conditions: closed vial
Method: Analyses were conducted at t=0, 2, 4 and 8 weeks for appearance, assay, and related substances for samples stored in closed vials at 25° C./60% RH and 40° C./75% RH.
Excipient Compatibility Sample Mixtures: The excipients and API were dispensed individually by weight into 20 mL clear borosilicate (type I) glass vials to fill the appropriate weights as listed in Table 12. Table 12 lists mixtures of API with varied excipients and a stand-alone control sample of API alone. Each excipient mixture sample preparation was conducted using a clean spatula to mix the vial ingredients for 30-60 seconds. Each vial was properly labeled with the description and storage conditions. One vial was used for testing at the initial (t=0) time point. Three vials, closed, were placed at each storage condition to allow sampling at each time point and one vial, closed, was placed at each storage condition for overage.

168 GPCRs [3] = biological target: 168 GPCRs (Homo sapiens, UniProt P08908); assay: β-arrestin based GPCR screen (PathHunter / GPCRmax), antagonist mode; conditions: HTR1A
Chain of 168 GPCRs (Homo sapiens, UniProt P08908) (P08908 whole entry): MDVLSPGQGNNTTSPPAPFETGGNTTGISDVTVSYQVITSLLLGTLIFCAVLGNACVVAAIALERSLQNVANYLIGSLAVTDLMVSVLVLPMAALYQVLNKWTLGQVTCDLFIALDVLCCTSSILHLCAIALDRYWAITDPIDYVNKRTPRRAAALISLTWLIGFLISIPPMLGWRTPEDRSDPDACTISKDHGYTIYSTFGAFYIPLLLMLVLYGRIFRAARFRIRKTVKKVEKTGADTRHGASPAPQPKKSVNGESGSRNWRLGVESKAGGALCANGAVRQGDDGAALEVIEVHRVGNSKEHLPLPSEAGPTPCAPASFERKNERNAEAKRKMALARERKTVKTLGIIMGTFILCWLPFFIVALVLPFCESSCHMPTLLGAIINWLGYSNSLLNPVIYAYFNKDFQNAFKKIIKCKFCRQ

168 GPCRs [4] = biological target: 168 GPCRs (Homo sapiens, UniProt P21452); assay: as above
Chain of 168 GPCRs (Homo sapiens, UniProt P21452) (P21452 whole entry): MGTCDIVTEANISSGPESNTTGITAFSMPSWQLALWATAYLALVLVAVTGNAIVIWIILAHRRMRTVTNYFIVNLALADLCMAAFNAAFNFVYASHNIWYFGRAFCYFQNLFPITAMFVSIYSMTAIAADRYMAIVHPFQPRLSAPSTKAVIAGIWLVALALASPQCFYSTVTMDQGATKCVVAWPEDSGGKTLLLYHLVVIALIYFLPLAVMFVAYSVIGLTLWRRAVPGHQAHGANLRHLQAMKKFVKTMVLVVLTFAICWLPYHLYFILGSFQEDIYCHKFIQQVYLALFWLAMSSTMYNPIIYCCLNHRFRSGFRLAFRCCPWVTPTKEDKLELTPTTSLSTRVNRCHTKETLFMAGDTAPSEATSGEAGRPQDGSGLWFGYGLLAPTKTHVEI

168 GPCRs [5] = biological target: 168 GPCRs (Homo sapiens, UniProt Q15722); assay: as above; conditions: LTB4R
Chain of 168 GPCRs (Homo sapiens, UniProt Q15722) (Q15722 whole entry): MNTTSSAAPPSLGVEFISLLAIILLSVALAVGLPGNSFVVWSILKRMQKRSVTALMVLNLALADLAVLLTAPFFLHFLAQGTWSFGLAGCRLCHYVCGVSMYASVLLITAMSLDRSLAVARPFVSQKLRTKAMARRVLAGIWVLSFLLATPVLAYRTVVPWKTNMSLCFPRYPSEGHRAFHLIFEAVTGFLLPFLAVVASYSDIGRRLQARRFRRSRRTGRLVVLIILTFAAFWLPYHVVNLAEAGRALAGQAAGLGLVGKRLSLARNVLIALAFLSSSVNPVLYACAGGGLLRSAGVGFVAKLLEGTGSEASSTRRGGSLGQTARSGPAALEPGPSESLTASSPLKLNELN

168 GPCRs [6] = biological target: 168 GPCRs (Homo sapiens, UniProt Q16581); assay: as above; conditions: C3AR1, Antagonist
Chain of 168 GPCRs (Homo sapiens, UniProt Q16581) (Q16581 whole entry): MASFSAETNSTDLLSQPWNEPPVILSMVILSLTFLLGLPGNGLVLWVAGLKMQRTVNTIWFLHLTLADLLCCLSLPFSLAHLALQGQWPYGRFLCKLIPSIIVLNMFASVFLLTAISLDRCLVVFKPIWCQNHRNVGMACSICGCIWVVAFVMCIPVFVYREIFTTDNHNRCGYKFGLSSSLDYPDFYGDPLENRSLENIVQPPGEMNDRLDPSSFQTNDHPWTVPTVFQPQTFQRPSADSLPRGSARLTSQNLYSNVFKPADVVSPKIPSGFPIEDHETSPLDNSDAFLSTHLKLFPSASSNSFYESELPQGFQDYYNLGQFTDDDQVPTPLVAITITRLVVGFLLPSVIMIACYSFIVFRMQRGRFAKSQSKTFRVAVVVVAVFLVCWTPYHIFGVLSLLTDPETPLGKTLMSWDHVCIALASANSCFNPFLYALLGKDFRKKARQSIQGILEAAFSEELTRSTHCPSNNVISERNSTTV

168 GPCRs [7] = biological target: 168 GPCRs (Homo sapiens, UniProt Q96G91); assay: as above
Chain of 168 GPCRs (Homo sapiens, UniProt Q96G91) (Q96G91 whole entry): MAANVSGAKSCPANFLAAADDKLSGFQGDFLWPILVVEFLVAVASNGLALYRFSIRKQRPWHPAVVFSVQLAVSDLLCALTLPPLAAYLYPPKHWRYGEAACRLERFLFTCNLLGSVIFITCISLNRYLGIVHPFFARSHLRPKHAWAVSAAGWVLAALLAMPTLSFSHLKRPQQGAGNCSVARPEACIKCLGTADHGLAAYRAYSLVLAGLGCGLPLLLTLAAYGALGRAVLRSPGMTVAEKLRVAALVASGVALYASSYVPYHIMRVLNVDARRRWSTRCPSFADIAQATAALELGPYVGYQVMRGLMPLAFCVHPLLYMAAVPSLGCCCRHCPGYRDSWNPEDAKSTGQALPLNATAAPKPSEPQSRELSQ

168 GPCRs [8] = biological target: 168 GPCRs (Homo sapiens, UniProt Q9H3N8); assay: as above
Chain of 168 GPCRs (Homo sapiens, UniProt Q9H3N8) (Q9H3N8 whole entry): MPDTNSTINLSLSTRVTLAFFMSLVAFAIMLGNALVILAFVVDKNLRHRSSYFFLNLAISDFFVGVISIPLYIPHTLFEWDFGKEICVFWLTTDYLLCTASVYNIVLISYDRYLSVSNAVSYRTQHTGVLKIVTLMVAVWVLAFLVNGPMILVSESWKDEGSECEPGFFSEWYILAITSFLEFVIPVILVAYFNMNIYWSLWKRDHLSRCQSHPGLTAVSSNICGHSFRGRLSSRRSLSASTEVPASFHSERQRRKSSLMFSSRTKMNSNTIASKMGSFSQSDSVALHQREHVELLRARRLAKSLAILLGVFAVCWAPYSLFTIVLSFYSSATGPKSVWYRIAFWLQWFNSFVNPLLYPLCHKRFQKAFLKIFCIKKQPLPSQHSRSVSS

168 GPCRs [9] = biological target: T2, 168 GPCRs (Homo sapiens, UniProt Q9Y5Y4); assay: as above
T2 sequence (Q9Y5Y4 1-395): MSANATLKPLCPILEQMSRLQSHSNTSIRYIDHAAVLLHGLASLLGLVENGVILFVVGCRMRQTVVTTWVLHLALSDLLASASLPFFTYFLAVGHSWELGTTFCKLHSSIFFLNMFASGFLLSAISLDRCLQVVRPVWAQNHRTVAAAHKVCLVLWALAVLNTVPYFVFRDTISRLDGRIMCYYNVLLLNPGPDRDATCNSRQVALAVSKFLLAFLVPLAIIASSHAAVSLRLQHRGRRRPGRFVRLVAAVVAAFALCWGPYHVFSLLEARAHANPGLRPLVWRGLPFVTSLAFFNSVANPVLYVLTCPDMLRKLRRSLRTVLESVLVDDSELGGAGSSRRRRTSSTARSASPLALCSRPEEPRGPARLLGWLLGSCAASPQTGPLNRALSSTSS

CNC(C)C(=O)c1ccc2c(c1)OCO2 (centres unmarked) [methylone, 3,4-methylenedioxy-N-methylcathinone]
locomotion during testing session (mice): no differences between groups in locomotion | locomotor activity (OFT) vs. vehicle (rats; methylone 5 mg/kg): no effect | locomotor activity (OFT) vs. vehicle (rats; methylone 15 or 30 mg/kg): significant increase in locomotor activity | time spent in the center of the open field vs. vehicle (rats): significantly increases the time spent in the center | time spent in the center of the open field vs. vehicle (rats; listed as Methylone): significantly increased center time | agonist activity at any of the 168 GPCRs (criterion >30% activity) (168 GPCRs [1]; 1 and 10 micromolar): did not meet criteria for agonist or antagonist activity | % Activity (168 GPCRs [1]; DRD2S, Agonist mode, 10 uM): 0.6% | % Activity (168 GPCRs [1]; DRD2S, Agonist, 1 uM): 0% | % Activity (168 GPCRs [1]; NPSR1b, Agonist mode, 10 uM): 4.8% | % Activity (168 GPCRs [1]; NPSR1b, Agonist, 1 uM): −1.3% | antagonist activity (% inhibition) (5HT2A receptor; 1 or 10 mM, threshold 50%): no agonist or antagonist activity | activity at 10 µM (5HT2A receptor; HTR2A, Antagonist mode, 10 uM): -2.7% | activity at 1 µM (5HT2A receptor; HTR2A, Antagonist, 1 uM): -7.9% | Assay (% Recovery) ([2]; 4 Week 25° C./60% RH): 100.3% | Assay (% Recovery) ([2]; 8 Week 40° C./75% RH): 100.3% | activity at 10 µM (168 GPCRs [3]; Antagonist mode, 10 uM): -6.4% | activity at 1 µM (168 GPCRs [3]; Antagonist, 1 uM): -5.2% | activity at 10 µM (168 GPCRs [4]; TACR2, Antagonist mode, 10 uM): 9.1% | activity at 1 µM (168 GPCRs [4]; TACR2, Antagonist, 1 uM): 10% | activity at 10 µM (168 GPCRs [5]; Antagonist mode, 10 uM): -5.2% | activity at 1 µM (168 GPCRs [5]; Antagonist, 1 uM): 3.5% | activity at 1 µM (168 GPCRs [6]; 1 uM): 2.5% | activity at 10 µM (168 GPCRs [6]; 10 uM): 0.3% | activity at 10 µM (168 GPCRs [7]; P2RY11, Antagonist mode, 10 uM): 6.6% | activity at 1 µM (168 GPCRs [7]; P2RY11, Antagonist, 1 uM): 2.7% | activity at 10 µM (168 GPCRs [8]; HRH4, Antagonist mode, 10 uM): -14% | activity at 1 µM (168 GPCRs [8]; HRH4, Antagonist, 1 uM): -11.6% | activity at 10 µM (168 GPCRs [9]; CRTH2, Antagonist mode, 10 uM): 8.9% | activity at 1 µM (168 GPCRs [9]; CRTH2, Antagonist, 1 uM): 9%
